# Laboratory results: PubChem BioAssay (NCI)
#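 Test compounds were applied to cells in 96-well plates for 48 hours at 5 doses. GI50 = concentration required for 50% inhibition of growth. The concentration for full growth arrest is given as TGI.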
# What was measured:
# Experiment in all cases: growth of human tumour cells (NCI), 48 h
# CCRF-CEM leukemia = tested on: CCRF-CEM leukemia
# ACHN renal = tested on: ACHN renal
# K-562 leukemia = tested on: K-562 leukemia
# HS 578T breast = tested on: HS 578T breast
# MDA-MB-435 = tested on: MDA-MB-435
# LOX IMVI melanoma = tested on: LOX IMVI melanoma
# HCT-116 colon = tested on: HCT-116 colon
# U251 CNS = tested on: U251 CNS
# NCI-H460 lung = tested on: NCI-H460 lung
# MDA-MB-231 breast = tested on: MDA-MB-231 breast
# HOP-92 NSCLC = tested on: HOP-92 NSCLC
# RPMI-8226 leukemia = tested on: RPMI-8226 leukemia
# SK-MEL-28 melanoma = tested on: SK-MEL-28 melanoma
# 786-0 renal = tested on: 786-0 renal
# HCC-2998 colon = tested on: HCC-2998 colon
# A498 renal = tested on: A498 renal
# KM12 colon = tested on: KM12 colon
# M14 melanoma = tested on: M14 melanoma
# HOP-62 NSCLC = tested on: HOP-62 NSCLC
# CAKI-1 renal = tested on: CAKI-1 renal
# PC-3 prostate = tested on: PC-3 prostate
# NCI-H23 lung = tested on: NCI-H23 lung
# BT-549 breast = tested on: BT-549 breast
# MALME-3M melanoma = tested on: MALME-3M melanoma
# NCI/ADR-RES ovarian = tested on: NCI/ADR-RES ovarian
# SR leukemia = tested on: SR leukemia
# OVCAR-4 ovarian = tested on: OVCAR-4 ovarian
# TK-10 renal = tested on: TK-10 renal
# MOLT-4 leukemia = tested on: MOLT-4 leukemia
# OVCAR-8 ovarian = tested on: OVCAR-8 ovarian
# UO-31 renal = tested on: UO-31 renal
# DU-145 prostate = tested on: DU-145 prostate
# NCI-H522 lung = tested on: NCI-H522 lung
# SK-OV-3 ovarian = tested on: SK-OV-3 ovarian
# SK-MEL-2 melanoma = tested on: SK-MEL-2 melanoma
# NCI-H226 lung = tested on: NCI-H226 lung
# SF-539 CNS = tested on: SF-539 CNS
# SN12C renal = tested on: SN12C renal
# RXF 393 renal = tested on: RXF 393 renal
# T-47D breast = tested on: T-47D breast
# UACC-257 melanoma = tested on: UACC-257 melanoma
# EKVX NSCLC = tested on: EKVX NSCLC
# SK-MEL-5 melanoma = tested on: SK-MEL-5 melanoma
# IGROV1 ovarian = tested on: IGROV1 ovarian
# HCT-15 colon = tested on: HCT-15 colon
# HL-60(TB) leukemia = tested on: HL-60(TB) leukemia
# UACC-62 melanoma = tested on: UACC-62 melanoma
# SF-295 CNS = tested on: SF-295 CNS
# MCF7 breast = tested on: MCF7 breast
# A549 NSCLC = tested on: A549 NSCLC
# SNB-19 CNS = tested on: SNB-19 CNS
# HT29 colon = tested on: HT29 colon
# OVCAR-5 ovarian = tested on: OVCAR-5 ovarian
# SW-620 colon = tested on: SW-620 colon
# SF-268 CNS = tested on: SF-268 CNS
# SNB-75 CNS = tested on: SNB-75 CNS
# COLO 205 colon = tested on: COLO 205 colon
# OVCAR-3 ovarian = tested on: OVCAR-3 ovarian
smiles,measurement,setting,value
CCN(CC)C(=S)SSC1CCCCC1,GI50,CCRF-CEM leukemia,5.72 µM
same,TGI,CCRF-CEM leukemia,58.6 µM
same,GI50,ACHN renal,16.6 µM
same,TGI,ACHN renal,32 µM
same,GI50,K-562 leukemia,11.3 µM
same,TGI,K-562 leukemia,38.8 µM
same,GI50,HS 578T breast,27.4 µM
same,TGI,HS 578T breast,88.2 µM
same,GI50,MDA-MB-435,15 µM
same,TGI,MDA-MB-435,33.1 µM
same,GI50,LOX IMVI melanoma,8.6 µM
same,TGI,LOX IMVI melanoma,24.3 µM
same,GI50,HCT-116 colon,12.9 µM
same,TGI,HCT-116 colon,25.8 µM
same,GI50,U251 CNS,14.2 µM
same,TGI,U251 CNS,29.1 µM
same,GI50,NCI-H460 lung,18.3 µM
same,TGI,NCI-H460 lung,52.7 µM
same,GI50,MDA-MB-231 breast,17.3 µM
same,TGI,MDA-MB-231 breast,37.1 µM
same,GI50,HOP-92 NSCLC,14.3 µM
same,TGI,HOP-92 NSCLC,40 µM
same,GI50,RPMI-8226 leukemia,9.99 µM
same,TGI,RPMI-8226 leukemia,31.4 µM
same,GI50,SK-MEL-28 melanoma,19.9 µM
same,TGI,SK-MEL-28 melanoma,42.2 µM
same,GI50,786-0 renal,19.6 µM
same,TGI,786-0 renal,35 µM
same,GI50,HCC-2998 colon,19.7 µM
same,TGI,HCC-2998 colon,41.1 µM
same,GI50,A498 renal,30.8 µM
same,TGI,A498 renal,> 100 µM
same,GI50,KM12 colon,13 µM
same,TGI,KM12 colon,28.8 µM
same,GI50,M14 melanoma,14.4 µM
same,TGI,M14 melanoma,30.9 µM
same,GI50,HOP-62 NSCLC,26.8 µM
same,TGI,HOP-62 NSCLC,77.9 µM
same,GI50,CAKI-1 renal,11.9 µM
same,TGI,CAKI-1 renal,25.2 µM
same,GI50,PC-3 prostate,17.8 µM
same,TGI,PC-3 prostate,42.6 µM
same,GI50,NCI-H23 lung,20.8 µM
same,TGI,NCI-H23 lung,48.7 µM
same,GI50,BT-549 breast,19 µM
same,TGI,BT-549 breast,46.5 µM
same,GI50,MALME-3M melanoma,20.8 µM
same,TGI,MALME-3M melanoma,46.3 µM
same,GI50,NCI/ADR-RES ovarian,21.3 µM
same,TGI,NCI/ADR-RES ovarian,47 µM
same,GI50,SR leukemia,0.0656 µM
same,TGI,SR leukemia,4.36 µM
same,GI50,OVCAR-4 ovarian,15 µM
same,TGI,OVCAR-4 ovarian,28.4 µM
same,GI50,TK-10 renal,18 µM
same,TGI,TK-10 renal,34.6 µM
same,GI50,MOLT-4 leukemia,11.4 µM
same,TGI,MOLT-4 leukemia,43.5 µM
same,GI50,OVCAR-8 ovarian,15.8 µM
same,TGI,OVCAR-8 ovarian,34.9 µM
same,GI50,UO-31 renal,12.1 µM
same,TGI,UO-31 renal,25.7 µM
same,GI50,DU-145 prostate,20.3 µM
same,TGI,DU-145 prostate,45.5 µM
same,GI50,NCI-H522 lung,2.91 µM
same,TGI,NCI-H522 lung,12.7 µM
same,GI50,SK-OV-3 ovarian,31.2 µM
same,TGI,SK-OV-3 ovarian,75 µM
same,GI50,SK-MEL-2 melanoma,26.7 µM
same,TGI,SK-MEL-2 melanoma,61.2 µM
same,GI50,NCI-H226 lung,24.7 µM
same,TGI,NCI-H226 lung,76.1 µM
same,GI50,SF-539 CNS,15.3 µM
same,TGI,SF-539 CNS,31.7 µM
same,GI50,SN12C renal,15.8 µM
same,TGI,SN12C renal,31.2 µM
same,GI50,RXF 393 renal,16.4 µM
same,TGI,RXF 393 renal,31.2 µM
same,GI50,T-47D breast,22.2 µM
same,TGI,T-47D breast,66.4 µM
same,GI50,UACC-257 melanoma,22.5 µM
same,TGI,UACC-257 melanoma,65 µM
same,GI50,EKVX NSCLC,30.5 µM
same,TGI,EKVX NSCLC,91.2 µM
same,GI50,SK-MEL-5 melanoma,12.5 µM
same,TGI,SK-MEL-5 melanoma,26.3 µM
same,GI50,IGROV1 ovarian,17.2 µM
same,TGI,IGROV1 ovarian,38.4 µM
same,GI50,HCT-15 colon,19.7 µM
same,TGI,HCT-15 colon,46.4 µM
same,GI50,HL-60(TB) leukemia,13.6 µM
same,TGI,HL-60(TB) leukemia,47.2 µM
same,GI50,UACC-62 melanoma,18 µM
same,TGI,UACC-62 melanoma,42.8 µM
same,GI50,SF-295 CNS,17.6 µM
same,TGI,SF-295 CNS,44.6 µM
same,GI50,MCF7 breast,14.4 µM
same,TGI,MCF7 breast,30.4 µM
same,GI50,A549 NSCLC,30.9 µM
same,TGI,A549 NSCLC,82.6 µM
same,GI50,SNB-19 CNS,32.6 µM
same,TGI,SNB-19 CNS,> 100 µM
same,GI50,HT29 colon,15.3 µM
same,TGI,HT29 colon,34.8 µM
same,GI50,OVCAR-5 ovarian,18.7 µM
same,TGI,OVCAR-5 ovarian,32.7 µM
same,GI50,SW-620 colon,11.7 µM
same,TGI,SW-620 colon,26.2 µM
same,GI50,SF-268 CNS,23.1 µM
same,TGI,SF-268 CNS,60.9 µM
same,GI50,SNB-75 CNS,17.5 µM
same,TGI,SNB-75 CNS,48 µM
COc1cc(C2c3cc4c(cc3OC(N3CCOCC3)C2C)OCO4)cc(OC)c1O (stereo not given),TGI,CCRF-CEM leukemia,> 100 µM
same,TGI,ACHN renal,> 74.9 µM
same,TGI,K-562 leukemia,> 75.5 µM
same,TGI,HS 578T breast,25.6 µM
same,TGI,MDA-MB-435,6.27 µM
same,TGI,LOX IMVI melanoma,> 100 µM
same,TGI,HCT-116 colon,11.4 µM
same,TGI,U251 CNS,> 53.6 µM
same,TGI,NCI-H460 lung,> 100 µM
same,TGI,MDA-MB-231 breast,> 84.2 µM
same,TGI,HOP-92 NSCLC,> 65.3 µM
same,TGI,RPMI-8226 leukemia,> 100 µM
same,TGI,SK-MEL-28 melanoma,> 48.6 µM
same,TGI,786-0 renal,> 50.4 µM
same,TGI,HCC-2998 colon,> 57.8 µM
same,TGI,A498 renal,41.2 µM
same,TGI,KM12 colon,> 100 µM
same,TGI,M14 melanoma,> 100 µM
same,TGI,HOP-62 NSCLC,35.5 µM
same,TGI,CAKI-1 renal,26.1 µM
same,TGI,PC-3 prostate,> 86.2 µM
same,TGI,NCI-H23 lung,> 100 µM
same,TGI,BT-549 breast,60.6 µM
same,TGI,MALME-3M melanoma,16.2 µM
same,TGI,NCI/ADR-RES ovarian,18.4 µM
same,TGI,SR leukemia,> 35.1 µM
same,TGI,OVCAR-4 ovarian,> 100 µM
same,TGI,TK-10 renal,70.6 µM
same,TGI,COLO 205 colon,41.9 µM
same,TGI,MOLT-4 leukemia,> 100 µM
same,TGI,OVCAR-8 ovarian,> 56.7 µM
same,TGI,UO-31 renal,> 66.4 µM
same,TGI,DU-145 prostate,> 100 µM
same,TGI,NCI-H522 lung,> 20.2 µM
same,TGI,SK-OV-3 ovarian,> 50.6 µM
same,TGI,SK-MEL-2 melanoma,46.3 µM
same,TGI,NCI-H226 lung,> 66.3 µM
same,TGI,SF-539 CNS,22 µM
same,TGI,SN12C renal,54.3 µM
same,TGI,RXF 393 renal,85.4 µM
same,TGI,T-47D breast,> 100 µM
same,TGI,UACC-257 melanoma,> 100 µM
same,TGI,EKVX NSCLC,> 94 µM
same,TGI,SK-MEL-5 melanoma,17.5 µM
same,TGI,IGROV1 ovarian,> 70.8 µM
same,TGI,HCT-15 colon,25.5 µM
same,TGI,HL-60(TB) leukemia,> 26 µM
same,TGI,UACC-62 melanoma,> 100 µM
same,TGI,SF-295 CNS,15.8 µM
same,TGI,MCF7 breast,> 100 µM
same,TGI,A549 NSCLC,> 59.9 µM
same,TGI,SNB-19 CNS,> 75.1 µM
same,TGI,HT29 colon,27.7 µM
same,TGI,OVCAR-5 ovarian,> 100 µM
same,TGI,SW-620 colon,> 59.6 µM
same,TGI,OVCAR-3 ovarian,> 34 µM
same,TGI,SF-268 CNS,> 100 µM
same,TGI,SNB-75 CNS,7.64 µM
